Laboratory results published in patent publication US20100041089A1, “IMPROVED METHOD FOR DETECTING CHEMICAL […]” (priority 2006, published 2010).

Test system: yeast genes (expressed mRNA)
Assay: DNA chip measurement of expressed mRNA of yeast genes after culture with a toxic chemical substance
Assay type: cell-based, Saccharomyces cerevisiae S288C
Summary of the method: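 S. cerevisiae S288C grown at 25 °C in YPD, exposed in log phase for 2 h to a toxicant at growth-inhibiting, non-lethal concentration. Cy3/Cy5-labelled cDNA from poly(A) mRNA hybridized to whole-genome chip at 65 °C >12 h. Ratio to untreated control, ≥2 significant.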

Measured: The level of expressed mRNA in the presence of chemical substance/The level of expressed mRNA in the absence of chemical substance

COc1cc(CNC(=O)CCCCC=CC(C)C)ccc1O [(12), 8-Methyl-N-vanillyl-6-nonenamide]
0.9: yeast gene YBR222C | yeast gene YCR048W | yeast gene YDL204W, cultured two hours with substance | yeast gene YDR031W, cultured two hours with substance | yeast gene YDR410C | yeast gene YDR497C, metabolism protein genes | yeast gene YDR545W, cultured two hours with substance | yeast gene YER038C, cultured two hours with substance | yeast gene YER079W, cultured two hours with substance | yeast gene YER096W, metabolism protein genes | yeast gene YER106W, cultured two hours with substance | yeast gene YER175C, cultured two hours with substance | yeast gene YGL001C | yeast gene YGL115W (stress protein genes) | yeast gene YGL199C, cultured two hours with substance | yeast gene YGR055W, metabolism protein genes | yeast gene YGR154C, cultured two hours with substance | yeast gene YHR111W, metabolism protein genes | yeast gene YIL023C, cultured two hours with substance | yeast gene YJL165C (stress protein genes) | yeast gene YJR054W, cultured two hours with substance | yeast gene YKL213C, metabolism protein genes | yeast gene YKR091W, cultured two hours with substance | yeast gene YLR273C | yeast gene YLR348C, metabolism protein genes | yeast gene YNL045W, metabolism protein genes | yeast gene YNL074C, cultured two hours with substance | yeast gene YNL156C, cultured two hours with substance | yeast gene YNL331C | yeast gene YOL064C (stress protein genes) | yeast gene YOL117W, cultured two hours with substance | yeast gene YOL131W, cultured two hours with substance | yeast gene YOR130C, metabolism protein genes | yeast gene YPL194W (stress protein genes) | yeast gene YPL196W, cultured two hours with substance | yeast gene YPR023C, cultured two hours with substance | yeast gene YPR151C, cultured two hours with substance
1.2: yeast gene YBL048W, cultured two hours with substance | yeast gene YDL072C, cultured two hours with substance | yeast gene YFL006W, cultured two hours with substance | yeast gene YMR097C, cultured two hours with substance | yeast gene YMR180C, cultured two hours with substance | yeast gene YOL083W, cultured two hours with substance
1.4: yeast gene YBL107C, cultured two hours with substance | yeast gene YDR391C, cultured two hours with substance | yeast gene YGR110W, cultured two hours with substance | yeast gene YGR146C, cultured two hours with substance | yeast gene YIL117C, cultured two hours with substance | yeast gene YOL162W, cultured two hours with substance
1.5: yeast gene YDL110C, cultured two hours with substance | yeast gene YDR411C, cultured two hours with substance | yeast gene YDR534C, cultured two hours with substance | yeast gene YFL010C, cultured two hours with substance | yeast gene YGL117W, cultured two hours with substance | yeast gene YHR029C, cultured two hours with substance | yeast gene YKL152C, cultured for two hours with substance
16.3: yeast gene YBR072W (stress protein genes)
0.4: yeast gene YJL108C, cultured two hours with substance | yeast gene YLR460C, cultured two hours with substance | yeast gene YMR215W, cultured two hours with the chemical substance
1.1: yeast gene YAL012W, metabolism protein genes | yeast gene YEL001C, cultured two hours with substance | yeast gene YER035W, cultured two hours with substance | yeast gene YGL047W, cultured two hours with substance | yeast gene YGL104C | yeast gene YGL136C, cultured two hours with substance | yeast gene YHR199C, cultured two hours with substance | yeast gene YIL087C, cultured two hours with substance | yeast gene YIL154C | yeast gene YJL149W, cultured two hours with substance | yeast gene YKL153W, cultured two hours with substance | yeast gene YKL195W, cultured two hours with substance | yeast gene YLR054C, cultured two hours with substance | yeast gene YLR387C, cultured two hours with substance | yeast gene YMR067C, cultured two hours with substance | yeast gene YMR295C, cultured two hours with substance | yeast gene YNL092W, cultured two hours with substance | yeast gene YNL104C, metabolism protein genes | yeast gene YNL234W, cultured two hours with substance | yeast gene YNL305C, cultured two hours with substance | yeast gene YNR033W, metabolism protein genes | yeast gene YOL126C, metabolism protein genes | yeast gene YOR099W, metabolism protein genes | yeast gene YPL052W, cultured two hours with substance
0.8: yeast gene YAR028W, cultured two hours with substance | yeast gene YBR273C, cultured two hours with substance | yeast gene YDR003W, cultured two hours with substance | yeast gene YDR511W, cultured two hours with substance | yeast gene YFL024C, cultured two hours with substance | yeast gene YGL037C, cultured two hours with substance | yeast gene YLR324W, cultured two hours with substance | yeast gene YML117W, cultured two hours with substance | yeast gene YMR095C, cultured two hours with substance | yeast gene YMR107W, cultured two hours with substance | yeast gene YNL115C, cultured two hours with substance | yeast gene YNL208W, cultured two hours with substance | yeast gene YNL300W, cultured two hours with substance | yeast gene YOL047C, cultured two hours with substance | yeast gene YPL206C, cultured two hours with substance
3.3: yeast gene YGR035C, cultured two hours with substance
1.8: yeast gene YHR138C, cultured two hours with substance | yeast gene YLR350W, cultured two hours with substance | yeast gene YML054C, cultured for two hours with substance | yeast gene YMR191W, cultured two hours with substance | yeast gene YPL087W, cultured two hours with substance
2.3: yeast gene YKR075C, cultured two hours with substance
1.6: yeast gene YBR203W, cultured two hours with substance | yeast gene YGL062W, cultured for two hours with substance | yeast gene YGL121C, cultured two hours with substance | yeast gene YGR221C, cultured two hours with substance | yeast gene YHL038C, mitochondria-located protein gene, cultured two hours with substance | yeast gene YIL077C, cultured two hours with the substance | yeast gene YLR103C, DNA repair protein genes, cultured two hours with substance | yeast gene YLR194C, cultured two hours with substance | yeast gene YLR345W, cultured for two hours with substance
0.6: yeast gene YAL053W, cultured two hours with substance | yeast gene YJL186W, cultured two hours with substance | yeast gene YKL086W, cultured two hours with substance | yeast gene YMR009W, cultured two hours with substance
3.5: yeast gene YLR008C, cultured two hours with substance
3.9: yeast gene YDR406W (transport facilitation protein gene)
3.2: yeast gene YNL211C, cultured two hours with substance
2.9: yeast gene YOL150C, cultured two hours with substance
2.1: yeast gene YDR476C, cultured two hours with substance | yeast gene YGR284C, cultured two hours with substance | yeast gene YOL031C, cultured two hours with substance
0.5: yeast gene YOR248W, cultured two hours with substance
6.7: yeast gene YOR049C, cultured two hours with substance
0.7: yeast gene YBL001C | yeast gene YCR037C | yeast gene YDR019C | yeast gene YFL032W, cultured two hours with substance | yeast gene YGR130C, cultured two hours with substance | yeast gene YIL024C, cultured two hours with substance | yeast gene YIL167W | yeast gene YJL020C, cultured two hours with substance | yeast gene YNL281W, cultured two hours with substance | yeast gene YNR064C, cultured two hours with substance
3.6: yeast gene YHR054C, cultured two hours with substance
1.9: yeast gene YMR316W, cultured two hours with substance
2.4: yeast gene YGR281W (transport facilitation protein gene) | yeast gene YJL052W, cultured for two hours with substance | yeast gene YMR102C, cultured two hours with substance
4.2: yeast gene YLR346C, cultured two hours with substance
1.0: yeast gene YAL054C | yeast gene YDL222C, cultured two hours with substance | yeast gene YDR009W | yeast gene YDR330W, cultured two hours with substance | yeast gene YER158C, cultured two hours with substance | yeast gene YER163C, cultured two hours with substance | yeast gene YGR101W, cultured two hours with substance | yeast gene YHR209W, cultured two hours with substance | yeast gene YIL041W, cultured two hours with substance | yeast gene YJL057C, cultured two hours with substance | yeast gene YJL066C, cultured two hours with substance | yeast gene YJL152W, cultured two hours with substance | yeast gene YJL161W, cultured two hours with substance | yeast gene YJL171C, cultured two hours with substance | yeast gene YKL071W, cultured two hours with substance | yeast gene YKL151C, cultured two hours with substance | yeast gene YLR152C, cultured two hours with substance | yeast gene YNL044W, cultured two hours with substance | yeast gene YNL169C | yeast gene YNL190W, cultured two hours with substance | yeast gene YOL032W, cultured two hours with substance | yeast gene YOL036W, cultured two hours with substance | yeast gene YOL071W, cultured two hours with substance | yeast gene YOL082W, cultured two hours with substance | yeast gene YOR019W, cultured two hours with substance | yeast gene YOR197W, cultured two hours with substance | yeast gene YOR336W, metabolism protein genes | yeast gene YPL017C, metabolism protein genes | yeast gene YPR079W, cultured two hours with substance
2.6: yeast gene YHL047C (transport facilitation protein gene)
2.8: yeast gene YAL034C, cultured two hours with substance | yeast gene YDL174C, cultured for two hours with substance | yeast gene YOR382W, cultured two hours with substance
2.0: yeast gene YGR142W, cultured two hours with substance | yeast gene YLR149C, cultured two hours with substance | yeast gene YMR315W, cultured two hours with substance | yeast gene YNL241C (stress protein genes)
1.3: yeast gene YDR486C, cultured two hours with substance | yeast gene YGL053W, cultured two hours with substance | yeast gene YGL209W | yeast gene YGR282C | yeast gene YJL082W, cultured two hours with substance | yeast gene YJL151C, cultured two hours with substance | yeast gene YJR008W, cultured two hours with substance | yeast gene YNR068C, cultured two hours with substance | yeast gene YOL058W | yeast gene YPL222W, cultured two hours with substance | yeast gene YPR167C
1.7: yeast gene YBR256C | yeast gene YCL009C | yeast gene YER004W, cultured two hours with substance | yeast gene YER026C | yeast gene YMR184W, cultured two hours with substance
4.3: yeast gene YDR070C, cultured two hours with substance
2.2: yeast gene YHR179W, cultured for two hours with substance | yeast gene YMR090W, cultured two hours with substance
